Measurements taken from patent publication US5053070A, “Pyrimidine derivatives, preparation processes thereof, herbicide containing the same, and herbicidal compositions containing the same along with other active ingredient” (Mitsui Toatsu Chemicals, Incorporated, priority 1988, dated 1991).

What was measured:
[1] = system: ALS (acetolactate syntase); assay: ALS enzyme assay (Test 1); type: biochemical, pea; details: 1,000 ppm (0.5 mg/0.5 ml)
Method in brief: (§1)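 Partially purified ALS from dark-grown pea and barnyardgrass seedlings incubated 1 h at 30° C with pyruvate, TPP, MgCl2 and FAD. Compounds tested at 1,000 ppm (0.5 mg/0.5 ml). Acetoin formed detected colorimetrically at 525 nm via creatine/α-naphthol, relative to blank and acid-stopped controls.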

[2] = system: soybean; assay: Upland soil application test (Test 2), crop injury; type: in vivo; details: 30 g ai/a, soil spray before emergence, 30 days later
Method in brief: (§2)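 Damage was graded 30 days after treatment by comparing air-dried plant weight with that of plants in untreated pots. Test compound, given as a diluted wettable powder, had been sprayed on the soil surface one day after sowing, before any weeds emerged.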

[3] = system: cotton; assay: Upland soil application test (Test 2), crop injury; type: in vivo; details: 30 g ai/a, soil spray before emergence, 30 days later
Method in brief: as §2

[4] = system: peanut; assay: Upland soil application test (Test 2), crop injury; type: in vivo; details: 30 g ai/a, soil spray before emergence, 30 days later
Method in brief: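 Pre-emergence test in upland soil pots with weed seeds mixed into the soil; one day after seeding, wettable-powder formulation diluted in water and sprayed onto the soil surface at 10 l per are. Damage scored 30 days later from air-dried weight relative to untreated pots.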

[5] = system: barnyardgrass; assay: Upland foliar application test by mixed formulations (Test 7); type: in vivo; details: Echinochloa crus-galli, 720 h, applied alone, 0.3 kg/ha, 30th day, read-out: Herbicidal effects (%) Barnyardgrass Ea
Method in brief: (§3)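 Foliar spray of two-compound mixed emulsion, diluted with water, at 5 l per are via ULV sprayer onto weeds at 2–3 leaf stage in upland soil pots, greenhouse. Effect observed 30 days after spraying. Measured mixture activity (Ea) compared with Colby expected value (Ec) derived from single-ingredient growth inhibition rates.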

[6] = system: morningglories; assay: as above; type: in vivo; details: Ipomoea, 720 h, applied alone, 0.3 kg/ha, 30th day, read-out: Herbicidal effects (%) Morningglory Ea
Method in brief: as §3

[7] = system: redroot pigweed; assay: as above; type: in vivo; details: Amaranthus retroflexus, 720 h, applied alone, 0.3 kg/ha, 30th day, read-out: Herbicidal effects (%) Redrood pigweed Ea
Method in brief: as §3

[8] = system: johnsongrass; assay: as above; type: in vivo; details: Sorghum halepense, 720 h, applied alone, 0.3 kg/ha, 30th day, read-out: Herbicidal effects (%) Johnsongrass Ea
Method in brief: as §3

[9] = system: green foxtail; assay: as above; type: in vivo; details: Setaria viridis, 720 h, applied alone, 0.3 kg/ha, 30th day, read-out: Herbicidal effects (%) Green foxtail Ea
Method in brief: as §3

[10] = system: ALS (acetolactate syntase); assay: ALS enzyme assay (Test 1); type: biochemical, barnyardgrass; details: 1,000 ppm (0.5 mg/0.5 ml)
Method in brief: as §1

[11] = system: barnyardgrass; assay: Upland soil application test (Test 2); type: in vivo; details: 30 g ai/a, soil spray before emergence, 30 days later
Method in brief: (§4)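 Weed damage was rated at 30 days by comparing air-dried plant weights against untreated controls. Compound had been applied as a water-diluted wettable powder (10 l per are), sprayed on the soil surface one day after sowing, before emergence, with weed seed incorporated in upland field soil.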

[12] = system: common lambsquarters; assay: Upland soil application test (Test 2); type: in vivo; details: 30 g ai/a, soil spray before emergence, 30 days later
Method in brief: as §4

[13] = system: redroot pigweed; assay: Upland soil application test (Test 2); type: in vivo; details: 30 g ai/a, soil spray before emergence, 30 days later
Method in brief: as §4

[14] = system: johnsongrass; assay: Upland soil application test (Test 2); type: in vivo; details: 30 g ai/a, soil spray before emergence, 30 days later
Method in brief: as §4

[15] = system: green foxtail; assay: Upland soil application test (Test 2); type: in vivo; details: 30 g ai/a, soil spray before emergence, 30 days later
Method in brief: as §4

[16] = system: large crabgrass; assay: Upland soil application test (Test 2); type: in vivo; details: 30 g ai/a, soil spray before emergence, 30 days later
Method in brief: as §4

[17] = system: foxtail meadow; assay: Upland soil application test (Test 2); type: in vivo; details: 30 g ai/a, soil spray before emergence, 30 days later
Method in brief: as §4

COc1cc(OC)nc(Oc2ccccc2C=NOCC#Cc2ccccc2)n1 [compound 42]
Inhibitory activity (%) Pea [1]: 0%
Injury Soybean [2]: 0 (91-100 (No damages))
Injury Cotton [3]: 0 (91-100 (No damages))
Injury Peanut [4]: 0 (91-100 (No damages))
pest or weed control at 300 g/ha [5]: 50%
pest or weed control at 300 g/ha [6]: 10%
pest or weed control at 300 g/ha [7]: 50%
pest or weed control at 300 g/ha [8]: 50%
pest or weed control at 300 g/ha [9]: 50%
Inhibitory activity (%) Barnyardgrass [10]: 93%
Herbicidal effects Barnyardgrass [11]: 5 (0-5 (Death))
Herbicidal effects Common lambsquarters [12]: 4 (6-10 (Severe damages))
Herbicidal effects Redroot pigweed [13]: 3 (11-40 (Medium damages))
Herbicidal effects Johnsongrass [14]: 5 (0-5 (Death))
Herbicidal effects Green foxtail [15]: 5 (0-5 (Death))
Herbicidal effects Large crabgrass [16]: 4 (6-10 (Severe damages))
Herbicidal effects Foxtail meadow [17]: 5 (0-5 (Death))
